Assay results from patent publication US20210284621A1 (priority 2018, published 2021).
Like-named read-outs stand apart in the source and are kept apart here.

Legend:
CB1 receptor [1] = target: T1, CB1 receptor (Homo sapiens, UniProt P21554); assay: CB1 competitive radioligand binding assay ([3H] SR141716A); design: expressed in transfected cells; host or cells: Chem-1 cells; details: for inhibition at 0.5 µM: 0.5 μM compound, 2.0 nM [3H] SR141716A, 90 min 37° C.
Experimental: (§1) J Med Chem. 41(26): 5177-5187 (1998); and Munro S., et al. Molecular characterization of a peripheral receptor for cannabinoids. Nature 365:61-65 (1993).
CB1 Radioligand Binding Assay: A compound of the invention (0.5 μM in 1% DMSO) was incubated with Chem-1 cells expressing human recombinant CB1 receptor in buffer (50 mM HEPES, pH 7.4, 5 mM MgCl2, 1 mM CaCl2, 0.2% BSA) for 90 minutes at 37° C. in the presence of 2.0 nM [H^3] SR141716A (CB1 radioligand). % Inhibition was determined as a function of radioligand binding to the CB1 receptor.

CB2 receptor [2] = target: T2, CB2 receptor (Homo sapiens, UniProt P34972); assay: CB2 competitive radioligand binding assay ([3H] WIN-55,212-2); design: expressed in transfected cells; host or cells: CHO-K1 cells; details: for inhibition at 0.05 µM: 0.05 μM compound, 2.4 nM [3H] WIN-55,212-2, 90 min 37° C.; for Fold Selectivity (CB1/CB2): Table 3, ratio of Ki CB1/CB2
Experimental: as §1
CB2 Radioligand Binding Assay: A compound of the invention (0.05 μM in 1% DMSO) was incubated with CHO-K1 cells expressing human recombinant CB2 receptor in buffer (20 mM HEPES, pH 7.0, 0.5% BSA) for 90 minutes at 37° C. in the presence of 2.4 nM [H^3] WIN-55,212-2 (CB2 radioligand). % Inhibition was determined as a function of radioligand binding to the […].

CB1 receptor [3] = target: T1, CB1 receptor; assay: cell-based; design: host or cells: PathHunter cell lines
Experimental: (§2) The PathHunter® β-Arrestin assay monitors the activation of a GPCR in a homogenous, non-imaging assay format using a technology developed by DiscoverX called Enzyme Fragment Complementation (EFC) with β-galactosidase (3-Gal) as the functional reporter. […] EA is fused to β-Arrestin and PK is fused to the GPCR of interest.
(§3) PathHunter cell lines were expanded from freezer stocks according to standard procedures. Cells were seeded in a total volume of 20 μL into white walled, 384-well microplates and incubated at 37° C. for the appropriate time prior to testing. For agonist activity determination, cells were incubated with sample to induce response. Intermediate dilution of sample stocks was performed to generate 5× sample in assay buffer. 5 μL of 5× sample was added to cells and incubated at 37° C. or room temperature for 90 to 180 minutes. Vehicle concentration was 1%. Assay signal was generated through a single addition of 12.5 or 15 μL (50% v/v) of PathHunter Detection reagent cocktail, followed by a one hour incubation at room temperature. Microplates were read following signal generation with a PerkinElmer Envision™ instrument for chemiluminescent signal detection. Compound activity was analyzed using CBIS data analysis suite (ChemInnovation, CA). For agonist assays, percentage activity was calculated using the following formula: % Activity=100%×(mean RLU of test sample− mean RLU of vehicle control)/(mean MAX control ligand− mean RLU of vehicle control).

CB2 receptor [4] = target: T2, CB2 receptor; assay: cell-based; design: host or cells: cAMP Hunter cell lines
Experimental: as §2, §3

[5] = PathHunter agonist mode, read-out: CB1 Activity (β-Arrestin)
[6] = PathHunter agonist mode, read-out: CB2 Activity (β-Arrestin)

T1 sequence (P21554 whole entry): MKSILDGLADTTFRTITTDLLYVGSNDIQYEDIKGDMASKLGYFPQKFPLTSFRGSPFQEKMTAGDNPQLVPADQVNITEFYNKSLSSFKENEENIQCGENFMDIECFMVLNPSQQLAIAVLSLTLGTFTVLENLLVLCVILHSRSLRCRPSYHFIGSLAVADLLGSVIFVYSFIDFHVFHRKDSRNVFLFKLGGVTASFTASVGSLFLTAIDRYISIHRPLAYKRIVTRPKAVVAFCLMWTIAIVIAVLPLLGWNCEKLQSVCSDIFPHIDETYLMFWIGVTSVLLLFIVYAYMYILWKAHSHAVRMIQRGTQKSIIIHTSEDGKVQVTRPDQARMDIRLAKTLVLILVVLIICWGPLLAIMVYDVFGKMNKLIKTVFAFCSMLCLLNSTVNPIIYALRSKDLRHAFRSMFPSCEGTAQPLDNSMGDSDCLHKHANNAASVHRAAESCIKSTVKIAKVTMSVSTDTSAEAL
T2 sequence (P34972 whole entry): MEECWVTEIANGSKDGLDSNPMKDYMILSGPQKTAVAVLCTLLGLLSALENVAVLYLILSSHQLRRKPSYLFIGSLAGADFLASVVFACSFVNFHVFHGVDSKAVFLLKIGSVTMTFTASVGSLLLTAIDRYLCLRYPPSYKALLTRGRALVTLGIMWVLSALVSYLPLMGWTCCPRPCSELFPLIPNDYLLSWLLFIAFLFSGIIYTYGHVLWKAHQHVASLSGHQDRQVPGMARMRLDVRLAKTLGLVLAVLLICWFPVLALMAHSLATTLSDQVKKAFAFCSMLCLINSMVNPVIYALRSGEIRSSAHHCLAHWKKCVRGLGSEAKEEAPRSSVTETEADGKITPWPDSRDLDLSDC

Compound	inhibition at 0.5 µM (CB1 receptor [1]) [%]	Ki (CB1 receptor [1]; Table 2, read-out: CB1 Binding Ki) [nM]	inhibition at 0.05 µM (CB2 receptor [2]) [%]	Ki (CB2 receptor [2]; Table 2, read-out: CB2 Binding Ki) [nM]	EC50 (CB1 receptor [3]; [5]) [nM]	EC50 (CB2 receptor [4]; [6]) [nM]	EC50 (CB1 receptor [3]) [nM]	EC50 (CB2 receptor [4]) [nM]	Ki (CB1 receptor [1]) [nM]	Ki (CB2 receptor [2]) [nM]	Fold Selectivity (CB1/CB2) (CB2 receptor [2])
CCCCCCC(C)(C)c1cc(O)c2c(c1)OC(C)(C)[C@@H]1CC=C(C(=O)NCC(=O)O)C[C@@H]21 [Compound 1, ((6aR,10aR)-1-Hydroxy-6,6-dimethyl-3-(2-methyloctan-2-yl)-6a,7,10,10a-tetrahydro-6H-benzo[c]chromene-9-carbonyl)glycine]	10	> 3000	4	1310	> 3000	58					
CCCCCCC(C)(C)c1cc(O)c2c(c1)OC(C)(C)[C@@H]1CC=C(C(=O)N[C@H](C)C(=O)O)C[C@@H]21 [Compound 2, ((6aR,10aR)-1-Hydroxy-6,6-dimethyl-3-(2-methyloctan-2-yl)-6a,7,10,10a-tetrahydro-6H-benzo[c]chromene-9-carbonyl)-D-alanine]	9		0		> 3000	> 3000					
CCCCCCC(C)(C)c1cc(O)c2c(c1)OC(C)(C)[C@@H]1CC=C(C(=O)N[C@H](Cc3ccc(O)cc3)C(=O)O)C[C@@H]21 [Compound 3]	13		8				> 3000	> 3000			
CCCCCCC(C)(C)c1cc(O)c2c(c1)OC(C)(C)[C@H]1CC=C(C(=O)O)C[C@H]21 [Compound 20, (6aS,10aS)-1-Hydroxy-6,6-dimethyl-3-(2-methyloctan-2-yl)-6a,7,10,10a-tetrahydro-6H-benzo[c]chromene-9-carboxylic acid]	-10		9				> 3000	> 3000			
CCCCCCC(C)(C)c1cc(O)c2c(c1)OC(C)(C)[C@@H]1CC=C(C(=O)OCC(O)CO)C[C@@H]21 (stereo partly drawn) [Compound 22, 2,3-Dihydroxypropyl (6aR,10aR)-1-hydroxy-6,6-dimethyl-3-(2-methyloctan-2-yl)-6a,7,10,10a-tetrahydro-6H-benzo[c]chromene-9-carboxylate]	107		92			4	42				
CCCCCCC(C)(C)c1cc(O)c2c(c1)OC(C)(C)[C@@H]1CC=C(C(=O)NCCC(=O)O)C[C@@H]21 [Compound 26, 3-((6aR,10aR)-1-Hydroxy-6,6-dimethyl-3-(2-methyloctan-2-yl)-6a,7,10,10a-tetrahydro-6H-benzo[c]chromene-9-carboxamido)propanoic acid]	9		2		> 3000	> 3000					
CCCCCCC(C)(C)c1cc(O)c2c(c1)OC(C)(C)[C@@H]1CC=C(C(=O)NC(C)(C)CC(=O)O)C[C@@H]21 [Compound 27, 3-((6aR,10aR)-1-Hydroxy-6,6-dimethyl-3-(2-methyloctan-2-yl)-6a,7,10,10a-tetrahydro-6H-benzo[c]chromene-9-carboxamido)-3-methylbutanoic acid]	9		7		> 3000	> 3000					
CCCCCCC(C)(C)C1=CC2=C(C(=O)C1=O)[C@@H]1CC(C(=O)O)=CC[C@H]1C(C)(C)O2 [Compound 30, (6aR,10aR)-6,6-dimethyl-3-(2-methyloctan-2-yl)-1,2-dioxo-2,6,6a,7,10,10a-hexahydro-1H-benzo[c]chromene-9-carboxylic acid]	19		-2		> 3000	> 3000					
CCCCCCC(C)(C)c1cc(O)c2c(c1)OC(C)(C)[C@@H]1CC=C(C(=O)NOC(C)(C)C)C[C@@H]21 [Compound 88, (6aR,10aR)-N-(tert-butoxy)-1-hydroxy-6,6-dimethyl-3-(2-methyloctan-2-yl)-6a,7,10,10a-tetrahydro-6H-benzo[c]chromene-9-carboxamide]						1.7	5.9		5.4	1	5.7
CCCCCCC(C)(C)c1cc(O)c2c(c1)OC(C)(C)[C@@H]1CC=C(C(=O)NC3COC3)C[C@@H]21 [Compound 90, (6aR,10aR)-1-hydroxy-6,6-dimethyl-3-(2-methyloctan-2-yl)-N-(oxetan-3-yl)-6a,7,10,10a-tetrahydro-6H-benzo[c]chromene-9-carboxamide]						2.7	128		10	2.5	4.0
CCCCCCC(C)(C)c1cc(O)c2c(c1)OC(C)(C)[C@@H]1CC=C(C(=O)NC3(C(F)(F)F)CCC3)C[C@@H]21 [Compound 96, (6aR,10aR)-1-hydroxy-6,6-dimethyl-3-(2-methyloctan-2-yl)-N-(1-(trifluoromethyl)cyclobutyl)-6a,7,10,10a-tetrahydro-6H-benzo[c]chromene-9-carboxamide]						3	12.8		25	1.3	19.2
CCCC(C)(C)c1cc(O)c2c(c1)OC(C)(C)[C@@H]1CC=C(C(=O)NC3CCCC3)C[C@@H]21 [Compound 97, (6aR,10aR)-N-cyclopentyl-1-hydroxy-6,6-dimethyl-3-(2-methylpentan-2-yl)-6a,7,10,10a-tetrahydro-6H-benzo[c]chromene-9-carboxamide]							> 3000	17.9	780	72	10.8
CCCC(C)(C)c1cc(O)c2c(c1)OC(C)(C)[C@@H]1CC=C(C(=O)NC3(C(F)(F)F)CC3)C[C@@H]21 [Compound 102, (6aR,10aR)-1-hydroxy-6,6-dimethyl-3-(2-methylpentan-2-yl)-N-(1-(trifluoromethyl)cyclopropyl)-6a,7,10,10a-tetrahydro-6H-benzo[c]chromene-9-carboxamide]					> 3000	30.5			860	51	16.9
CCCCCCC(C)(C)c1cc(O)c2c(c1)OC(C)(C)[C@@H]1CC=C(C(=O)NC3CNC3)C[C@@H]21 [Compound 103, (6aR,10aR)-N-(azetidin-3-yl)-1-hydroxy-6,6-dimethyl-3-(2-methyloctan-2-yl)-6a,7,10,10a-tetrahydro-6H-benzo[c]chromene-9-carboxamide]						9.5	1710		270	51	5.3
CCCCCCC(C)(C)c1cc(O)c2c(c1)OC(C)(C)[C@@H]1CC=C(C(=O)N3CCNCC3)C[C@@H]21 [Compound 104, ((6aR,10aR)-1-hydroxy-6,6-dimethyl-3-(2-methyloctan-2-yl)-6a,7,10,10a-tetrahydro-6H-benzo[c]chromen-9-yl)(piperazin-1-yl)methanone]						5	4450		260	30	8.7
CCCCCCC(C)(C)c1cc(O)c2c(c1)OC(C)(C)[C@@H]1CC=C(C(=O)NOC)C[C@@H]21 [Compound 107]					49.4	2.9			36.2	4.9	7.4
CCCCCCC(C)(C)c1cc(O)c2c(c1)OC(C)(C)[C@@H]1CC=C(C(=O)NS(C)(=O)=O)C[C@@H]21 [Compound 108, (6aR,10aR)-1-hydroxy-6,6-dimethyl-3-(2-methyloctan-2-yl)-N-(methylsulfonyl)-6a,7,10,10a-tetrahydro-6H-benzo[c]chromene-9-carboxamide]							1430	29.5	> 3000	302	>9.9
